Reference: ChEMBL document CHEMBL4177611, “Discovery of aminocyclohexene analogues as selective and orally bioavailable hNav1.7 inhibitors for analgesia” (Bioorg Med Chem Lett, 2017)

How the values were obtained:
[1] = in vitro; details: human, Caco-2
[2] = in vitro; details: human, Caco-2; remark: listed apart in the source
[3] = Ratio of total drug level in iv dosed rat brain to plasma measured 2 hrs post dose; assay type: ADME, organism-based; details: read-out: BPR
[4] = molecular target: Sodium channel protein type 9 subunit alpha (Homo sapiens, UniProt Q15858); assay: Inhibition of human Nav1.7 expressed in CHO-K1 cells at -120 mV holding potential incubated over 5 mins measured at 15 secs interval by Qpatch clamp assay; assay type: cell-based
[5] = Oral bioavailability in Sprague-Dawley rat at 2 mg/kg administered as single dose via gavage by LC-MS/MS analysis; assay type: ADME, organism-based; details: in vivo
[6] = Volume of distribution at steady state in Sprague-Dawley rat administered as single iv bolus by LC-MS/MS analysis; assay type: ADME, organism-based; details: in vivo, read-out: Vdss
[7] = molecular target: Cytochrome P450 2C9 (Homo sapiens, UniProt P11712)
[8] = Clearance in Sprague-Dawley rat administered as single iv bolus by LC-MS/MS analysis; assay type: ADME, organism-based; details: in vivo
[9] = AUC in Sprague-Dawley rat at 2 mg/kg administered as single dose via oral gavage by LC-MS/MS analysis; assay type: ADME, organism-based; details: in vivo
[10] = molecular target: Cytochrome P450 3A4 (Homo sapiens, UniProt P08684)
[11] = molecular target: Cytochrome P450 2C19 (Homo sapiens, UniProt P33261)
[12] = molecular target: Cytochrome P450 2D6 (Homo sapiens, UniProt P10635)
[13] = molecular target: T1, Cytochrome P450 1A2 (Homo sapiens, UniProt P05177)
T1 sequence (P05177 whole entry): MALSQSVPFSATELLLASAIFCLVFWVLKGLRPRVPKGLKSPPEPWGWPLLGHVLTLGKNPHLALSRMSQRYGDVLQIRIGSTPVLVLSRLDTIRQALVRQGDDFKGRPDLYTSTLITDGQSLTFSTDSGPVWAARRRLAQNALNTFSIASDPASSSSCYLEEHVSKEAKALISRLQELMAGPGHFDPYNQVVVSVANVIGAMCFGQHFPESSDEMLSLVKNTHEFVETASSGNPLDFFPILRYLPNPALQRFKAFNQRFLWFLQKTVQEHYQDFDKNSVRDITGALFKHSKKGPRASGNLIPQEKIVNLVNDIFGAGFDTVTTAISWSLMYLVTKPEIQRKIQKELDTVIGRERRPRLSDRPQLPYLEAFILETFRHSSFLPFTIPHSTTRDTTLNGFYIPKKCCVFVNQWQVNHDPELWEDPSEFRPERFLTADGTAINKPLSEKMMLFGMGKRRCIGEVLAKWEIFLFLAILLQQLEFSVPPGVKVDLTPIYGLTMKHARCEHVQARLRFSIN

[14] = Oral bioavailability in Sprague-Dawley rat at 10 mg/kg administered as single dose via gavage by LC-MS/MS analysis; assay type: ADME, organism-based; details: in vivo
[15] = AUC in Sprague-Dawley rat at 10 mg/kg administered as single dose via oral gavage by LC-MS/MS analysis; assay type: ADME, organism-based; details: in vivo

Cytochrome P450 2C9, sequence (P11712 whole entry): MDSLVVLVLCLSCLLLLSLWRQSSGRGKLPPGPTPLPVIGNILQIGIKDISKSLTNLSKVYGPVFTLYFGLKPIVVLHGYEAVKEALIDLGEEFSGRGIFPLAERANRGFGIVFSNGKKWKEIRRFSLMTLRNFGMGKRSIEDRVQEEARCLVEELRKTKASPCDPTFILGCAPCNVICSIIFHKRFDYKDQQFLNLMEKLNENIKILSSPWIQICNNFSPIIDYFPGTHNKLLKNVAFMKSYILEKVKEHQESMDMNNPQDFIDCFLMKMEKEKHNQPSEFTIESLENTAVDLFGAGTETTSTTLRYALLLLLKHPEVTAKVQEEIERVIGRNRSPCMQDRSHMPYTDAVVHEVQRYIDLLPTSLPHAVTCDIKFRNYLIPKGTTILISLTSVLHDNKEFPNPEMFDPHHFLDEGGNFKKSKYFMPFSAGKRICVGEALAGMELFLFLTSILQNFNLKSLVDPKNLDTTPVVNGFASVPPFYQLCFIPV
Cytochrome P450 3A4, sequence (P08684 whole entry): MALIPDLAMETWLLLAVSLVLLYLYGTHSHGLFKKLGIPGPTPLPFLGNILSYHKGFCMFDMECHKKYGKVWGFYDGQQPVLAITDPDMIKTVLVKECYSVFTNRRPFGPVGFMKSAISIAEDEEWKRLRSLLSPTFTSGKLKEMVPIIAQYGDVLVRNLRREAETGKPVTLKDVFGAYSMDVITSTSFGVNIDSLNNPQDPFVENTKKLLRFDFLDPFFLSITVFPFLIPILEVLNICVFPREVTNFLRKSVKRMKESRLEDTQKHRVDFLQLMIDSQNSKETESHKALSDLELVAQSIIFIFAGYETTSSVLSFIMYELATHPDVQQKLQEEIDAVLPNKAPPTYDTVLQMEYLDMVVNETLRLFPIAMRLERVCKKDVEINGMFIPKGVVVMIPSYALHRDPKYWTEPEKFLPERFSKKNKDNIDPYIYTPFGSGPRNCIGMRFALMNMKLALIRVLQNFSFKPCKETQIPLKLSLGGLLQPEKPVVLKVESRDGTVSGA
Sodium channel protein type 9 subunit alpha, sequence (Q15858 whole entry): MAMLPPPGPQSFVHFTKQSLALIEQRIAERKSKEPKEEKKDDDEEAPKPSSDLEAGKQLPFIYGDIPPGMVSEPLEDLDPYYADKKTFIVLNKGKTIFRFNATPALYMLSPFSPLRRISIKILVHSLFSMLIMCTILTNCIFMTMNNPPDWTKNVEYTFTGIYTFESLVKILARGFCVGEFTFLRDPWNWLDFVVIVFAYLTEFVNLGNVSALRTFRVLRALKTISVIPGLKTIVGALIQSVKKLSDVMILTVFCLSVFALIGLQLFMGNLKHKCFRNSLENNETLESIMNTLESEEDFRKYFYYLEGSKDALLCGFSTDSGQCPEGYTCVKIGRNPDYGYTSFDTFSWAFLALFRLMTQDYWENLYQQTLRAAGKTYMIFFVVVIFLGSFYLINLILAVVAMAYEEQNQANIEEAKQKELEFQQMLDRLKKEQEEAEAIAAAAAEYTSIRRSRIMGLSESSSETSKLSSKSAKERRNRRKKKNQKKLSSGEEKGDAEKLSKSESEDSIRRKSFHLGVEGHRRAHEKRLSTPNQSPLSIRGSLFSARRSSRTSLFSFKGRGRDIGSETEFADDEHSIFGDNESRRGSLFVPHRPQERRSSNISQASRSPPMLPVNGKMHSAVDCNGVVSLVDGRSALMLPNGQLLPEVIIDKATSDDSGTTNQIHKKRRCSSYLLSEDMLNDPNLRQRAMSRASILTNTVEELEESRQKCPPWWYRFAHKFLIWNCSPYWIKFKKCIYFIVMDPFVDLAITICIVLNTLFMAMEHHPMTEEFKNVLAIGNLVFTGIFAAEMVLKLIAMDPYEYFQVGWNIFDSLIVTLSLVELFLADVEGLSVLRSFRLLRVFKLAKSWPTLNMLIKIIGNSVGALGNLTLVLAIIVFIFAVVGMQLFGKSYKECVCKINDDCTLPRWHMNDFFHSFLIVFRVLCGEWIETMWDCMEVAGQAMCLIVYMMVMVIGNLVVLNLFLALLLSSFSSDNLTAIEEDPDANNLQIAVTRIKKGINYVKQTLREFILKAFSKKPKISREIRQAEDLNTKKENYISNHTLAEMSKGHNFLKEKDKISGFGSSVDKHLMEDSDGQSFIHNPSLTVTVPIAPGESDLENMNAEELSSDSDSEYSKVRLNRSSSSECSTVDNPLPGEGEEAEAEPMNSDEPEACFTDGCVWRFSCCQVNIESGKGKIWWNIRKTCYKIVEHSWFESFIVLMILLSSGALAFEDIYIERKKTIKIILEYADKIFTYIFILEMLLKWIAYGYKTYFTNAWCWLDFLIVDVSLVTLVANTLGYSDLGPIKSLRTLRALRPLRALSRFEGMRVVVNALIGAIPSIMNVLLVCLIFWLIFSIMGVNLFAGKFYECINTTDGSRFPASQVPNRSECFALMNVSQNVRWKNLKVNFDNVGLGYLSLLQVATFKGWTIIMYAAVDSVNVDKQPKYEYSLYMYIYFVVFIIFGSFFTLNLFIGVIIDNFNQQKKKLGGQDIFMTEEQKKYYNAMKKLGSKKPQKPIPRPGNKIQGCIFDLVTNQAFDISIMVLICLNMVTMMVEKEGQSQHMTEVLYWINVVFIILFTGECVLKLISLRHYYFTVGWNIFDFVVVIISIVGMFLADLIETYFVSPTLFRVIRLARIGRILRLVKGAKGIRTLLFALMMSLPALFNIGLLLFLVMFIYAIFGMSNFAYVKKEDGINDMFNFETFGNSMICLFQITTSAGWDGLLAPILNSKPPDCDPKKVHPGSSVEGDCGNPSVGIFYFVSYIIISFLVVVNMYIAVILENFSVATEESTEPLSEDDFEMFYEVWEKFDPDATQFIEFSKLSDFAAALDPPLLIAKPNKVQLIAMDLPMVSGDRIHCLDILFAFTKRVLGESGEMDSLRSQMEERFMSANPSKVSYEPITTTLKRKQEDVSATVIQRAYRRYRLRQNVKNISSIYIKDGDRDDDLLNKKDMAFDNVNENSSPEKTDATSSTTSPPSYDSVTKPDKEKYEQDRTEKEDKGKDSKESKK
Cytochrome P450 2C19, sequence (P33261 whole entry): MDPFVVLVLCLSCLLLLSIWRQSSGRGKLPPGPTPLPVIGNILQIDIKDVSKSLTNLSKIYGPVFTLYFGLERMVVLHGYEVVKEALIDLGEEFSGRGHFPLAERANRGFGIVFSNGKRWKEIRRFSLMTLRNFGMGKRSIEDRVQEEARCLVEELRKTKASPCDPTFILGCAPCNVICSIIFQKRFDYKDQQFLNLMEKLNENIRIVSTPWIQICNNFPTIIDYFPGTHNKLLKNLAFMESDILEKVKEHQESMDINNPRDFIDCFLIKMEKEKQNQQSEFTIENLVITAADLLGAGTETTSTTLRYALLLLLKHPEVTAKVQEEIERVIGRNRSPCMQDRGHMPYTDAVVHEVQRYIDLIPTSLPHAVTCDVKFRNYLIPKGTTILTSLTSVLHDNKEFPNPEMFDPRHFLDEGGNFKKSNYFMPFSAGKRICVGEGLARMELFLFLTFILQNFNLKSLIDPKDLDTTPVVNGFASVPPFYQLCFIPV
Cytochrome P450 2D6, sequence (P10635 whole entry): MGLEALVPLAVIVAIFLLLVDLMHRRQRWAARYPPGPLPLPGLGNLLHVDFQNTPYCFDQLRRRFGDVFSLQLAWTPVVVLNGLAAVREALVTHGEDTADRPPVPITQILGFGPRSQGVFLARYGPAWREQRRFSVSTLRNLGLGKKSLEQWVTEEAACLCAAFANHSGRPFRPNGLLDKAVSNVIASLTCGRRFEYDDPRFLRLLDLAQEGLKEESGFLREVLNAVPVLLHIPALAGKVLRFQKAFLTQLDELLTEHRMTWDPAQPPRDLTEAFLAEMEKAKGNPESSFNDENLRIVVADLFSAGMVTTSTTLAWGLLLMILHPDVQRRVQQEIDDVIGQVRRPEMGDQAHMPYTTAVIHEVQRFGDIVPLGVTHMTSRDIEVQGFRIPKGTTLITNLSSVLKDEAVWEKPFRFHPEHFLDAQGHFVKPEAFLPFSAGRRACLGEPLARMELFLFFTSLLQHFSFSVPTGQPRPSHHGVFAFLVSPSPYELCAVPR

CN[C@@H]1CCC=C(c2ccc(F)cc2)[C@H]1COc1cc(F)c(S(=O)(=O)Nc2cscn2)cc1Cl.Cl (racemic)
efflux ratio at 2 h, 2 µM [1]: 127
Papp A→B at 2 h, 2 µM [2]: 0.2 ×10⁻⁶ cm/s
Kp at 2 h [3]: 0.04
IC50 [4]: 170 nM

CCN[C@@H]1CCC=C(c2ccc(F)cc2)[C@H]1CNc1cc(F)c(S(=O)(=O)Nc2nccs2)cc1Cl.Cl
bioavailability [5]: 14%
Vd [6]: 3.07 L/kg
IC50 [7]: 200 nM
clearance [8]: 27.5 mL/min/kg
AUC [9]: 0.29 µM·h
IC50 [10]: 16500 nM
IC50 [11]: 2100 nM
IC50 [12]: 14100 nM
IC50 [4]: 6 nM
IC50 [13]: > 50000 nM

CCN[C@@H]1CCC=C(c2ccc(F)cc2)[C@H]1COc1cc(F)c(S(=O)(=O)Nc2cscn2)cc1Cl.Cl (racemic)
efflux ratio at 2 h, 2 µM [1]: 70
Papp A→B at 2 h, 2 µM [2]: 0.4 ×10⁻⁶ cm/s
Kp at 2 h [3]: 0.08
IC50 [4]: 59 nM

Cl.N[C@@H]1CCC=C(c2ccc(F)cc2)[C@H]1CNc1cc(F)c(S(=O)(=O)Nc2nccs2)cc1Cl
bioavailability [5]: 3%
Vd [6]: 4.24 L/kg
IC50 [7]: 500 nM
clearance [8]: 44.2 mL/min/kg
AUC [9]: 0.04 µM·h
IC50 [10]: > 50000 nM
IC50 [11]: 5600 nM
IC50 [12]: 42600 nM
IC50 [4]: 33 nM
IC50 [13]: > 50000 nM

O=S(=O)(Nc1cscn1)c1cc(Cl)c(OC[C@@H]2C(c3ccc(F)cc3)=CCC[C@H]2n2cnnc2)cc1F (racemic)
IC50 [4]: 770 nM

Cl.N[C@@H]1CCC=C(c2ccc(F)cc2)[C@H]1COc1cc(F)c(S(=O)(=O)Nc2nccs2)cc1Cl (racemic)
Vd [6]: 3.26 L/kg
IC50 [7]: 100 nM
bioavailability [14]: 0.3%
clearance [8]: 29 mL/min/kg
IC50 [10]: > 50000 nM
IC50 [11]: 8000 nM
IC50 [12]: 18000 nM
AUC [15]: 0.03 µM·h
IC50 [4]: 2 nM
IC50 [13]: > 50000 nM

Cl.N[C@@H]1CCC=C(c2ccc(F)cc2)[C@H]1CSc1cc(F)c(S(=O)(=O)Nc2nccs2)cc1Cl
bioavailability [5]: 14%
Vd [6]: 6.05 L/kg
IC50 [7]: 100 nM
clearance [8]: 46.5 mL/min/kg
AUC [9]: 0.17 µM·h
IC50 [10]: 5100 nM
IC50 [11]: 3300 nM
IC50 [12]: 18000 nM
IC50 [4]: 5 nM
IC50 [13]: > 50000 nM

Cl.N[C@@H]1CCC=C(c2ccc(F)cc2)[C@H]1CSc1cc(F)c(S(=O)(=O)Nc2cscn2)cc1Cl
bioavailability [5]: 27%
Vd [6]: 3.22 L/kg
clearance [8]: 26.1 mL/min/kg
AUC [9]: 0.62 µM·h
IC50 [4]: 59 nM

CCN[C@@H]1CCC=C(c2ccc(F)cc2)[C@H]1CNc1cc(F)c(S(=O)(=O)Nc2cscn2)cc1Cl
IC50 [4]: 200 nM

O=S(=O)(Nc1cscn1)c1cc(Cl)c(OC[C@@H]2C(c3ccc(F)cc3)=CCC[C@H]2n2ccnc2)cc1F (racemic)
IC50 [4]: 2340 nM

O=S(=O)(Nc1cscn1)c1cc(Cl)c(OC[C@@H]2C(c3ccc(F)cc3)=CCC[C@H]2N2CCC2)cc1F (racemic)
IC50 [4]: 1150 nM

CC(=O)N[C@@H]1CCC=C(c2ccc(F)cc2)[C@H]1COc1cc(F)c(S(=O)(=O)Nc2cscn2)cc1Cl (racemic)
IC50 [4]: 510 nM

CC(C)N[C@@H]1CCC=C(c2ccc(F)cc2)[C@H]1COc1cc(F)c(S(=O)(=O)Nc2cscn2)cc1Cl.Cl (racemic)
efflux ratio at 2 h, 2 µM [1]: 37
Papp A→B at 2 h, 2 µM [2]: 1.1 ×10⁻⁶ cm/s
Kp at 2 h [3]: 0.08
IC50 [4]: 94 nM

CN(C)[C@@H]1CCC=C(c2ccc(F)cc2)[C@H]1COc1cc(F)c(S(=O)(=O)Nc2cscn2)cc1Cl.Cl (racemic)
efflux ratio at 2 h, 2 µM [1]: 1.8
Papp A→B at 2 h, 2 µM [2]: 10 ×10⁻⁶ cm/s
Kp at 2 h [3]: 0.6
IC50 [4]: 14 nM

CCN(CC)[C@@H]1CCC=C(c2ccc(F)cc2)[C@H]1COc1cc(F)c(S(=O)(=O)Nc2cscn2)cc1Cl (racemic)
IC50 [4]: 310 nM

CCN[C@@H]1CCC=C(c2ccc(F)cc2)[C@H]1COc1cc(F)c(S(=O)(=O)Nc2nccs2)cc1Cl.Cl (racemic)
Vd [6]: 6.21 L/kg
IC50 [7]: 200 nM
bioavailability [14]: 3%
clearance [8]: 66.6 mL/min/kg
IC50 [10]: 21600 nM
IC50 [11]: 1500 nM
IC50 [12]: 4500 nM
AUC [15]: 0.12 µM·h
IC50 [4]: 48 nM
IC50 [13]: > 50000 nM

CCN[C@@H]1CCC=C(c2ccc(F)cc2)[C@H]1CSc1cc(F)c(S(=O)(=O)Nc2cscn2)cc1Cl
IC50 [4]: 100 nM
